Measured values from patent US9850183B2, “Conjugates derived from non-steroidal anti-inflammatory drugs and methods of use thereof in imaging” (Reiley Pharmaceuticals, Inc., priority 2014, dated 2017).
Where two headings read alike, the source gives them in different places.

Experiments:
[1] = biological target: T1, human COX-2 (Homo sapiens, UniProt P35354); assay: COX-2 enzyme assay (EIA kit, PGF2α readout); assay type: biochemical
T1 construct: purchased Cayman Chemical Co., Ann Arbor, Mich., USA 701080
T1 sequence (P35354 18-604): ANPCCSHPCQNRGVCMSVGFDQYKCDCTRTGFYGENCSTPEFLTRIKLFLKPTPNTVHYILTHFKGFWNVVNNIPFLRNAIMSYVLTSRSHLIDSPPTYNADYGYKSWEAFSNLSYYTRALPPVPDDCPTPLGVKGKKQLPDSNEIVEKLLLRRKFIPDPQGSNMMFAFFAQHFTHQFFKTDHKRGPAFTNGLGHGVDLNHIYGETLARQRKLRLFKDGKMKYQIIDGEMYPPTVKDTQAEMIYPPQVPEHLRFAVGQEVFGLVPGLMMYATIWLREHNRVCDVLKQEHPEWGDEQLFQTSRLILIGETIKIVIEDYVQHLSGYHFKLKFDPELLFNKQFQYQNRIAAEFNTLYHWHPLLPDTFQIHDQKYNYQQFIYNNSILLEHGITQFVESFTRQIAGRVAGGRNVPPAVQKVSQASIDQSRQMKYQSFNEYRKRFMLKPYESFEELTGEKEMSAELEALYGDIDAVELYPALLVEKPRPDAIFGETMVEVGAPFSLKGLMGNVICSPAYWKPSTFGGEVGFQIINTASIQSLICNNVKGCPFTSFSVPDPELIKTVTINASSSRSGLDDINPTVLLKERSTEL
Method: The ability of compounds to inhibit ovine COX-1 and human COX-2 was determined using a commercially available enzyme immunoassay (EIA) kit (catalog no. 701090 (COX-1); 701080 (COX-2) Cayman Chemical Co., Ann Arbor, Mich., USA) according to the manufacturer's protocol. COX catalyzes the first step in the biosynthesis of AA to PGH2. PGF2α, produced from PGH2 by reduction with stannous chloride, was measured by EIA (ACE™ competitive EIA, Cayman Chemical, Ann Arbor, Mich., USA). Briefly, to a series of supplied reaction buffer solutions [960 μl 0.1 M Tris-HCl (pH 8.0) containing 5 mM EDTA and 2 mM phenol] with either COX-1 or COX-2 (10 μl) enzyme in the presence of heme (10 μl), 10 μl of various concentrations of test drug solutions were added. These solutions were incubated for 15 min at 37° C. and subsequently 10 μl AA solution (100 μM) was added. The COX reaction was stopped by the addition of 30 μl stannus chloride after 2 min, mixed immediately, supernatants were 2000 fold diluted. The produced PGF2α was measured by EIA. This assay is based on the competition between PGs and a PG-acetylcholinesterase conjugate (PG tracer) for a limited amount of PG antiserum. The amount of PG tracer that is able to bind to the PG antiserum is inversely proportional to the concentration of PGs in the wells since the concentration of the PG tracer is held at a constant while the concentration of PGs varies. The specific antiserum-PG complex bound to a mouse anti-rabbit IgG that had been previously attached to the well. The plate was washed to remove any unbound reagents and 200 μl Ellman's reagent (5,5′-dithiobis-(2-nitrobenzoic acid), which contains the substrate to acetylcholine esterase, was added to the well. The product of this enzymatic reaction generates a distinct yellow color that absorbs at 406 nm. The intensity of this color, determined by spectrophotometry, is proportional to the amount of PG tracer bound to the well, which is inversely proportional to the amount of PGs present in the well during the incubation. Percent inhibition was calculated by the comparison of the compounds treated to the various control incubations.
(§1) Dose-response curves were generated using XLFit (IDBS, Surrey, UK) or Prism (GraphPad Software, La Jolla, Calif., US) to calculate IC50 values for each compound tested.

[2] = biological target: T2, COX-2 (Mus musculus, UniProt Q05769); assay: Cell-based COX-2 assay (PGE2 in LPS/IFN-g stimulated RAW264.7 cells); conditions: RAW264.7 murine macrophages, 1 μg/ml LPS and 10 U/ml IFN-g for 7 h, PGE2 readout
T2 construct: endogenous in cells; host or cells: RAW264.7 murine macrophages, stimulated with LPS and IFN-g
T2 sequence (Q05769 18-604): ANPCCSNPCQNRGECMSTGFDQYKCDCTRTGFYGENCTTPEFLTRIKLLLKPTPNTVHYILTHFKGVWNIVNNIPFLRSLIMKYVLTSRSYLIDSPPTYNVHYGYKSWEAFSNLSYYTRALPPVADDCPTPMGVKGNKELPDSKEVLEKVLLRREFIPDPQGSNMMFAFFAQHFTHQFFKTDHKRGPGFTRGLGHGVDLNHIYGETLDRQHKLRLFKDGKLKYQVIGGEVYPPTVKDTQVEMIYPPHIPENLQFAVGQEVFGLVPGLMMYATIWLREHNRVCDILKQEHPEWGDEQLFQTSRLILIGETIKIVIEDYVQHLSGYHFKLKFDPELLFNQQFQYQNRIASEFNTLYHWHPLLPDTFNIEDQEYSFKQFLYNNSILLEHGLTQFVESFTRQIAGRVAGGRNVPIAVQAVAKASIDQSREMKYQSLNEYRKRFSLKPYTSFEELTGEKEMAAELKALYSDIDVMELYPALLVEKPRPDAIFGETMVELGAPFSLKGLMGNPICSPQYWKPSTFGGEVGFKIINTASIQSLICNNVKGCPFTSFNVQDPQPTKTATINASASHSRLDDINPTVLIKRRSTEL
Method: RAW264.7 murine macrophages were obtained from the Cell Bank of Shanghai Institute of Biochemistry and Cell Biology, Chinese Academy of Sciences (Shanghai, China) and cultured in Dulbecco's modified Eagle's medium containing 100 U/ml penicillin and 100 μg/ml streptomycin at 37° C. in 5% CO2.
RAW264.7 cells were plated at a density of 2.5×10^5/ml cells in a 96-well plate with 0.1 ml of culture medium per well and cultured overnight. The cells were pre-incubated for 30 min with various doses of compounds and stimulated for 7 h with 1 μg/ml LPS and 10 U/ml IFN-g. The cell culture supernatants were collected immediately following treatment and centrifuged at 1,000 rpm for 5 min to remove the particulate matter. PGE2 was determined using a Prostaglandin E2 assay kit (catalog no. 62P2APEB; Cisbio Co.,). 10 μL of cell supernatant was transferred to a 384-well low volume plate (e.g. Corning® 3544), 5 μL of PGE2-d2 was added, followed by 5 μL anti-PGE2 Cryptate as a negative control. Replace the standard by 10 μL of diluent and PGE2-d2 by 5 μL of reconstitution buffer, Cal0 (for positive control), replace the standard by 10 μL of diluent. Incubate at 4° C. overnight. After centrifuging at 1,000 rpm for 1 min, the dual fluorescence emissions of 615 and 665 nm with a 320 nm excitation were measured using an Envision plate reader (Perkin Elmer, Shelton, Conn.). The results are expressed as the ratio of 665 nm/615 nm emissions.
as §1

[3] = human COX-2 enzyme, EIA, 15 min pre-incubation at 37° C., read-out: COX-2 IC50 (μM) enzyme

SMILES	IC50 [1, 3]	IC50 [2]	IC50 [1]
COc1ccc2c(c1)c(CC(=O)NCCCCNC(=O)C[N]1C(=O)C[N]3C(=O)C[N]4C(=O)C[S][Re]143=[O])c(C)n2C(=O)c1ccc(Cl)cc1 [Compound 23]	12 µM		
COc1ccc2c(c1)c(CC(=O)NCCCCCCNC(=O)C[N]1C(=O)C[N]3C(=O)C[N]4C(=O)C[S][Re]143=[O])c(C)n2C(=O)c1ccc(Cl)cc1 [Compound 27]	0.6 µM	12.7 µM	
Cc1c(CC(=O)O)c2cc(OCCCCNC(=O)C[N]3C(=O)C[N]4C(=O)C[N]5C(=O)C[S][Re]354=[O])ccc2n1C(=O)c1ccc(Cl)cc1 [Compound 35]			1.6 µM
Cc1c(CC(=O)O)c2cc(OCCCCCCNC(=O)C[N]3C(=O)C[N]4C(=O)C[N]5C(=O)C[S][Re]354=[O])ccc2n1C(=O)c1ccc(Cl)cc1 [Compound 39]			1.1 µM
CCOC(=O)C1C[S][Re]23(=[O])[S]CC(C(=O)NCCOCCOCCNC(=O)Cc4c(C)n(C(=O)c5ccc(Cl)cc5)c5ccc(OC)cc45)[N]2CC[N]13 (stereo not shown) [Compound 178]	0.2 µM	1.8 µM	
CCOC(=O)C1C[S][Re]23(=[O])[S]CC(C(=O)NCCCCCCNC(=O)Cc4c(C)n(C(=O)c5ccc(Cl)cc5)c5ccc(OC)cc45)[N]2CC[N]13 (stereo not shown) [Compound 181]	1 µM	1.5 µM	
CCOC(=O)C1C[S][Re]23(=[O])[S]CC(C(=O)NCCCCCCCNC(=O)Cc4c(C)n(C(=O)c5ccc(Cl)cc5)c5ccc(OC)cc45)[N]2CC[N]13 (stereo not shown) [Compound 182]	0.8 µM	0.6 µM	
CCOC(=O)C1C[S][Re]23(=[O])[S]CC(C(=O)NCCCCCCCCNC(=O)Cc4c(C)n(C(=O)c5ccc(Cl)cc5)c5ccc(OC)cc45)[N]2CC[N]13 (stereo not shown) [Compound 183]	0.4 µM	0.7 µM	
COc1ccc2c(c1)c(CC(=O)NCCCCCCNC(=O)C1C[S][Re]34(=[O])[S]CC(C(=O)OC(C)C)[N]3CC[N]14)c(C)n2C(=O)c1ccc(Cl)cc1 (stereo not shown) [Compound 185]	1.2 µM	0.5 µM	
COc1ccc2c(c1)c(CC(=O)NCCNC(=O)[c-]1cccc1)c(C)n2C(=O)c1ccc(Cl)cc1.[C-]#[O+].[C-]#[O+].[C-]#[O+].[Re+] [Compound 243]	0.5 µM	0.7 µM	
COc1ccc2c(c1)c(CC(=O)NCCOCCNC(=O)[c-]1cccc1)c(C)n2C(=O)c1ccc(Cl)cc1.[C-]#[O+].[C-]#[O+].[C-]#[O+].[Re+] [Compound 244]	> 30 µM	1.5 µM	
COc1ccc2c(c1)c(CC(=O)NCCCCCCCCNC(=O)[c-]1cccc1)c(C)n2C(=O)c1ccc(Cl)cc1.[C-]#[O+].[C-]#[O+].[C-]#[O+].[Re+] [Compound 247]	0.2 µM	2.6 µM	
COc1ccc2c(c1)c(CC(=O)NCCOCCOCCOCCNC(=O)[c-]1cccc1)c(C)n2C(=O)c1ccc(Cl)cc1.[C-]#[O+].[C-]#[O+].[C-]#[O+].[Re+] [Compound 248]	0.2 µM	> 30 µM	
COc1ccc2c(c1)c(CC(=O)NCc1ccc(CNC(=O)[c-]3cccc3)cc1)c(C)n2C(=O)c1ccc(Cl)cc1.[C-]#[O+].[C-]#[O+].[C-]#[O+].[Re+] [Compound 249]	1.1 µM	4.4 µM	
COc1ccc2c(c1)c(CC(=O)NCCOCCOCCNC(=O)c1ccc[cH-]1)c(C)n2C(=O)c1ccc(Cl)cc1.[C-]#[O+].[C-]#[O+].[C-]#[O+].[Re+] [Compound 251]	0.3 µM	> 30 µM	
COc1ccc2c(c1)c(CC(=O)NCCCC[N+]13CC[S][Re-]14(=[O])[S]CC[N]4C(=O)C3)c(C)n2C(=O)c1ccc(Cl)cc1 (stereo not shown) [Compound 261]	0.8 µM	1.8 µM	
COc1ccc2c(c1)c(CC(=O)NCCOCC[N+]13CC[S][Re-]14(=[O])[S]CC[N]4C(=O)C3)c(C)n2C(=O)c1ccc(Cl)cc1 (stereo not shown) [Compound 262]		1.7 µM	0.9 µM
COc1ccc2c(c1)c(CC(=O)NCCCCC[N+]13CC[S][Re-]14(=[O])[S]CC[N]4C(=O)C3)c(C)n2C(=O)c1ccc(Cl)cc1 (stereo not shown) [Compound 263]		0.3 µM	0.3 µM
COc1ccc2c(c1)c(CC(=O)NCCCCCCCC[N+]13CC[S][Re-]14(=[O])[S]CC[N]4C(=O)C3)c(C)n2C(=O)c1ccc(Cl)cc1 (stereo not shown) [Compound 265]		0.1 µM	2.1 µM
COc1ccc2c(c1)c(CC(=O)NCCCOCCC[N+]13CC[S][Re-]14(=[O])[S]CC[N]4C(=O)C3)c(C)n2C(=O)c1ccc(Cl)cc1 (stereo not shown) [Compound 266]	0.6 µM	0.2 µM	
COc1ccc2c(c1)c(CC(=O)NCCCOCC[N+]13CC[S][Re-]14(=[O])[S]CC[N]4C(=O)C3)c(C)n2C(=O)c1ccc(Cl)cc1 (stereo not shown) [Compound 267]	> 30 µM	0.3 µM	
COc1ccc2c(c1)c(CC(=O)NCCCC(C)(C)NC(=O)c1ccc[cH-]1)c(C)n2C(=O)c1ccc(Cl)cc1.[C-]#[O+].[C-]#[O+].[C-]#[O+].[Re+] [Compound 311]		0.4 µM	
COc1ccc2c(c1)c(CC(=O)NCCCCCC(C)(C)NC(=O)c1ccc[cH-]1)c(C)n2C(=O)c1ccc(Cl)cc1.[C-]#[O+].[C-]#[O+].[C-]#[O+].[Re+] [Compound 313]		0.2 µM	
COc1ccc2c(c1)c(CC(=O)NCCCNCCC[N+]13CC[S][Re-]14(=[O])[S]CC[N]4C(=O)C3)c(C)n2C(=O)c1ccc(Cl)cc1 (stereo not shown) [Compound 320]		5 µM	
COc1ccc2c(c1)c(CCNC(=O)CC[N+]13CC[S][Re-]14(=[O])[S]CC[N]4C(=O)C3)c(C)n2C(=O)c1ccc(Cl)cc1 (stereo not shown) [Compound 356]		1.6 µM	
